# Results as given in patent US20220339143A1, “TAK-925 FOR USE IN TREATING NARCOLEPSY” (Takeda Pharmaceutical Company Limited, priority 2019, published 2022).
# Like-named read-outs stand apart in the source and are kept apart here.
# Assay: Single dose PK in healthy subjects (Cohorts 1, 2, S1 and S2), plasma
# Type: in vivo, human
# Conditions: human, plasma, intravenous
# Experimental: This study investigates (i) the safety and tolerability of Compound A (methyl (2R,3S)-3-((methylsulfonyl)amino)-2-(((cis-4-phenylcyclohexyl)oxy)methyl)piperidine-1-carboxylate) when a single dose given as a 9 hour continuous IV infusion is administered to healthy adults, healthy elderly subjects and patients with narcolepsy type 1 (NT1); (ii) the pharmacokinetics of Compound A when a single dose given as a 9 hour continuous IV infusion is administered to healthy adults, healthy elderly subjects and patients with narcolepsy type 1; and (iii) the pharmacodynamics (PD) effects of Compound A, primarily by evaluation of the sleep latency on MWT when a single dose given as a 9 hour continuous IV infusion is administered to patients with narcolepsy type 1.
# Pharmacokinetics: Concentrations of Compound A in plasma, and CSF, and pharmacokinetics parameters.
# On average, the time to reach the plateau appeared to be approximately 3 to 4 hours after the start of infusion. […] After switching off the IV infusion, Compound A plasma concentrations declined rapidly and in a biphasic manner with a mean terminal disposition phase t1/2z ranging approximately from 3.4 to 5.1 hours across all doses. […] Table 5 provides a summary of plasma concentrations of Compound A after a single IV infusion in healthy subjects. Table 6 provides a summary of pharmacokinetic parameters of Compound A after a single IV infusion in healthy subjects.
# [1] = 28 mg, read-out: Plasma concentration, Minimum
# [2] = 28 mg, read-out: Plasma concentration, Q1
# [3] = 28 mg, read-out: Plasma concentration, Q3
# [4] = 28 mg, read-out: Plasma concentration, Maximum
# [5] = 28 mg, read-out: Plasma concentration, Mean
# [6] = 28 mg, read-out: Plasma concentration, Median
# [7] = 56 mg, read-out: Plasma concentration, Maximum
# [8] = 56 mg, read-out: Plasma concentration, Mean
# [9] = 56 mg, read-out: Plasma concentration, Median
# [10] = 56 mg, read-out: Plasma concentration, Minimum
# [11] = 56 mg, read-out: Plasma concentration, Q1
# [12] = 56 mg, read-out: Plasma concentration, Q3
# [13] = 112 mg, read-out: Plasma concentration, Maximum
# [14] = 112 mg, read-out: Plasma concentration, Mean
# [15] = 112 mg, read-out: Plasma concentration, Median
# [16] = 112 mg, read-out: Plasma concentration, Minimum
# [17] = 112 mg, read-out: Plasma concentration, Q1
# [18] = 112 mg, read-out: Plasma concentration, Q3
smiles,measurement,setting,value
"COC(=O)N1CCC[C@H](NS(C)(=O)=O)[C@@H]1CO[C@H]1CC[C@@H](c2ccccc2)CC1 [Compound A, methyl (2R,3S)-3-((methylsulfonyl)amino)-2-(((cis-4-phenylcyclohexyl)oxy)methyl)piperidine-1-carboxylate]",concentration at 2 hr,[1],33.7 ng/mL
same,concentration at 2 hr,[2],45.5 ng/mL
same,concentration at 2 h,[3],57.8 ng/mL
same,concentration at 3 h,[4],65.2 ng/mL
same,concentration at 3 hr,[5],55 ng/mL
same,concentration at 3 h,[6],59.3 ng/mL
same,concentration at 3 hr,[1],35.6 ng/mL
same,concentration at 3 hr,[2],51.3 ng/mL
same,concentration at 3 h,[3],63.7 ng/mL
same,concentration at 4 hr,[4],63.1 ng/mL
same,concentration at 4 h,[5],55 ng/mL
same,concentration at 4 hr,[6],54.5 ng/mL
same,concentration at 4 hr,[1],44.4 ng/mL
same,concentration at 4 hr,[2],54.2 ng/mL
same,concentration at 4 hr,[3],58.8 ng/mL
same,concentration at 6 hr,[4],51.7 ng/mL
same,concentration at 6 hr,[5],46.8 ng/mL
same,concentration at 6 hr,[6],48 ng/mL
same,concentration at 6 hr,[1],40.2 ng/mL
same,concentration at 6 hr,[2],45.4 ng/mL
same,concentration at 6 hr,[3],48.8 ng/mL
same,concentration at 8 hr,[4],58.8 ng/mL
same,concentration at 8 hr,[5],48.7 ng/mL
same,concentration at 8 hr,[6],51.7 ng/mL
same,concentration at 8 hr,[1],37.1 ng/mL
same,concentration at 8 hr,[2],43.3 ng/mL
same,concentration at 8 hr,[3],52.5 ng/mL
same,concentration at 9 hr,[4],58.3 ng/mL
same,concentration at 9 hr,[5],52.5 ng/mL
same,concentration at 9 hr,[6],55.3 ng/mL
same,concentration at 9 hr,[1],40.6 ng/mL
same,concentration at 9 hr,[2],51 ng/mL
same,concentration at 9 hr,[3],57.4 ng/mL
same,concentration at 0.5 h,[7],80.3 ng/mL
same,concentration at 0.5 h,[8],71.2 ng/mL
same,concentration at 0.5 h,[9],70.7 ng/mL
same,concentration at 0.5 h,[10],64.4 ng/mL
same,concentration at 0.5 h,[11],65 ng/mL
same,concentration at 0.5 h,[12],75.9 ng/mL
same,concentration at 1 h,[7],91.5 ng/mL
same,concentration at 1 h,[8],81.2 ng/mL
same,concentration at 1 h,[9],79 ng/mL
same,concentration at 1 h,[10],74.8 ng/mL
same,concentration at 1 h,[11],76.2 ng/mL
same,concentration at 1 h,[12],86.3 ng/mL
same,concentration at 1.5 h,[7],116 ng/mL
same,concentration at 1.5 h,[8],92.8 ng/mL
same,concentration at 1.5 h,[9],90.2 ng/mL
same,concentration at 1.5 h,[10],75.5 ng/mL
same,concentration at 1.5 h,[11],88.8 ng/mL
same,concentration at 1.5 h,[12],96.1 ng/mL
same,concentration at 2 h,[7],114 ng/mL
same,concentration at 2 h,[8],99.5 ng/mL
same,concentration at 2 h,[9],99 ng/mL
same,concentration at 2 h,[10],86.5 ng/mL
same,concentration at 2 h,[11],88.8 ng/mL
same,concentration at 2 h,[12],110 ng/mL
same,concentration at 3 h,[7],133 ng/mL
same,concentration at 3 h,[8],114 ng/mL
same,concentration at 3 h,[9],112 ng/mL
same,concentration at 3 h,[10],98.3 ng/mL
same,concentration at 3 h,[11],98.6 ng/mL
same,concentration at 3 h,[12],131 ng/mL
same,concentration at 4 h,[7],144 ng/mL
same,concentration at 4 hr,[8],118 ng/mL
same,concentration at 4 h,[9],113 ng/mL
same,concentration at 4 hr,[10],107 ng/mL
same,concentration at 4 hr,[11],109 ng/mL
same,concentration at 4 h,[12],120 ng/mL
same,concentration at 6 h,[7],119 ng/mL
same,concentration at 6 hr,[8],91.8 ng/mL
same,concentration at 6 h,[9],90.8 ng/mL
same,concentration at 6 hr,[10],73.5 ng/mL
same,concentration at 6 h,[11],73.8 ng/mL
same,concentration at 6 h,[12],103 ng/mL
same,concentration at 8 h,[7],133 ng/mL
same,concentration at 8 hr,[8],102 ng/mL
same,concentration at 8 h,[9],99.7 ng/mL
same,concentration at 8 hr,[10],84.9 ng/mL
same,concentration at 8 h,[11],87.2 ng/mL
same,concentration at 8 h,[12],108 ng/mL
same,concentration at 9 h,[7],138 ng/mL
same,concentration at 9 hr,[8],115 ng/mL
same,concentration at 9 h,[9],112 ng/mL
same,concentration at 9 hr,[10],102 ng/mL
same,concentration at 9 h,[11],104 ng/mL
same,concentration at 9 h,[12],122 ng/mL
same,concentration at 0.5 h,[13],174 ng/mL
same,concentration at 0.5 h,[14],132 ng/mL
same,concentration at 0.5 h,[15],122 ng/mL
same,concentration at 0.5 h,[16],108 ng/mL
same,concentration at 0.5 h,[17],119 ng/mL
same,concentration at 0.5 h,[18],149 ng/mL
same,concentration at 1 h,[13],172 ng/mL
same,concentration at 1 h,[14],154 ng/mL
same,concentration at 1 h,[15],162 ng/mL
same,concentration at 1 h,[16],126 ng/mL
same,concentration at 1 h,[17],131 ng/mL
same,concentration at 1 h,[18],169 ng/mL
same,concentration at 1.5 h,[13],255 ng/mL
same,concentration at 1.5 h,[14],194 ng/mL
